Laboratory results from patent US20210179680A1, “POLYPEPTIDE, DERIVATIVES THEREOF, AND APPLICATION THEREOF IN PREPARATION OF DRUGS HAVING RESISTANCE TO PULMONARY FIBROSIS” (priority 2016, published 2021).
Bridge positions count the residues as written; N and C are the ends. Square brackets hold non-standard residues; d marks the D form. Peptide text beside a SMILES is read from it. S5 = C=CCCC[C@](C)(N)C(=O)O

Experiments:
TRB3 protein = molecular target: T1, TRB3 protein (Homo sapiens, UniProt Q96RU7); assay: Surface plasmon resonance (Biacore T200) binding of polypeptides to TRB3 protein; settings: SPR, FIG. 4-1, 4-2 and Table 1
T1 construct: purchased RD
T1 sequence (Q96RU7 1-358): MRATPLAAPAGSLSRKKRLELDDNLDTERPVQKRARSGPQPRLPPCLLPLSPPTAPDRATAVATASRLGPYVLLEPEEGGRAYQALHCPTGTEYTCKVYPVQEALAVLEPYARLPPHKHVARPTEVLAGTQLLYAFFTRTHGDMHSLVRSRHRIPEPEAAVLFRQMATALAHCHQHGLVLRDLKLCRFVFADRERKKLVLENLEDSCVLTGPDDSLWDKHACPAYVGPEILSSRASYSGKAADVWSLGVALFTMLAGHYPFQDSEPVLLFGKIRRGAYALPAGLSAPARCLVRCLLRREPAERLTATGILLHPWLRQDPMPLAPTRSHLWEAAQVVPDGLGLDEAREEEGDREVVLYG
Method: The surface plasmon resonance experiment was carried out in a surface plasmon resonator Biacore T200, and the procedure was carried out in accordance with the instructions of the plasma resonator Biacore T200. Specific steps are as follows:
1. Purified TRB3 protein (purchased from RD) was coupled to a CMS chip (purchased from GE) by amidogen, and the unbound protein was eluted at a flow rate of 10 μL/min. The surface of the chip was equilibrated for 2 hours. Among them, the specific steps of amidogen coupling, elution and equilibration refer to the relevant instruction of GE's CMS chip.
2. 250 μL of the S1-S11 and MR2 polypeptide fragments prepared in Example 1 with different concentrations (800, 400, 200, 50, 12.5, 6.25, and 3.125 nM) were automatically injected, and the entire surface plasmon resonance experiment was carried out at 25° C. The buffer used was HBS-EP buffer [0.01 M HEPES, 0.15 M NaCl, 3 mM EDTA and 0.005% (w/w) surfactant TWEEN20]. Biacore T200's built-in analysis software was used to simulate the binding curves of different concentrations of peptides to TRB3.

[1] = molecular target: T2, TRB3/MDM2 protein interaction (Homo sapiens, UniProt Q96RU7); assay: Co-immunoprecipitation: inhibition of binding of MDM2 to TRB3 in BEAS-2B cells; type: cell-based; settings: BEAS-2B cells with TRB3 expression plasmid, 1 mg/mL polypeptide, 12 hours, co-IP with MDM2 antibody
T2 construct: host or cells: BEAS-2B
T2 sequence (Q96RU7 1-358): T1 sequence (Q96RU7 1-358)
Method: 1. Human lung epithelial BEAS-2B cells (purchased from Institute of Basic Medical Sciences, Chinese Academy of Medical Sciences) were seeded in a 90 mm^2 culture dish. After the cells were adhered to the wall of culture dish, the TRB3 expression plasmid were transferred to the cells according to the method described in Example 5. After 24 hours, 1 mg/mL of the polypeptides MR2, S1, S2, S3, S4, S5, S6, S7, S8, S9, S10 or S11 prepared in Example 1 were added respectively, and the cells were incubated for 12 hours in a 37° C. incubator and then harvested.
2. Co-immunoprecipitation with MDM2 antibody was performed according to the method described in Example 3, followed by detection using TRB3 antibody.

[2] = tested on: mice with bleomycin-induced pulmonary fibrosis; assay: Survival rate of mice with bleomycin-induced pulmonary fibrosis; type: in vivo, C57BL/6 mice; settings: Table 3 groups: 2 mg/kg i.p., 10th to 28th day after modeling, twice a week
Method: Male C57BL/6 mice were fasted overnight, then anesthetized with 45 mg/kg sodium pentobarbital by injection intraperitoneally (i.p.), and intratracheally injected with bleomycin at a dose of 3 U/kg. The specific operation steps are as follows: cut the neck skin of the mouse with as little trauma as possible, expose the trachea with the assistance of elbow ophthalmic forceps, puncture the trachea and inject about 50 μL of bleomycin into the trachea with a microsyringe, rotate the mouse quickly and stand it upright for 5 minutes in order to make bleomycin evenly enter the left and right lobe, thereby constructing an animal model. The whole operation was performed at a surgical table at about […]. Mice in the sham operation group were intratracheally injected with an equal amount of physiological saline for injection.
The animal model with pulmonary fibrosis was prepared according to the method described in Example 2. The peptide therapy was started from the 10th day after modeling (the treatment groups are shown in Table 3), and the time was calculated from the 10th day after modeling to count the mortality rate. The death situation of each group of experimental animals was counted and calculated daily. […] The survival rate is the percentage of the number of mice that survived accounting for the number of mice in the whole group. Results are shown in FIG. 6-1, FIG. 6-2 and Table 4. […] In FIG. 6-1 and FIG. 6-2, “##” represents that P value is less than 0.01 when the survival rate of administration group was compared with that of the sham operation group; “*” represents that P value is less than 0.05 when the survival rate of administration group was compared with that of the bleomycin group; “**” represents that P value is less than 0.01 when the survival rate of administration group was compared with that of bleomycin group; and “i.p.” refers to intraperitoneal injection.
The animal model of pulmonary fibrosis was prepared according to the method described in Example 2. The polypeptide treatment was started from the 10th day after modeling (the treatment groups are shown in Table 9), and the time was calculated from the 10th day after modeling to count the mortality rate. The mortality rate of each group of experimental animals was recorded and calculated daily. If none of the animals in a group died, the survival rate of the group is 100%. If all the animals in a group died, the survival rate is 0%. […] In FIG. 12, “##” represents that P value is less than 0.01 when the survival rate of the administration groups were compared with that of the sham operation group; “*” represents that P value is less than 0.05 and “**” represents that P value is less than 0.01 when the survival rate of the administration groups were compared with bleomycin group.

SMILES	interaction with the TRB3 protein (in words) (TRB3 protein)	interaction of TRB3 and MDM2 protein (FIG. 5, in words) [1]	Survival rate (%) 7 days [2] [%]	Survival rate (%) 14 days [2] [%]	Survival rate (%) 21 days [2] [%]	Survival rate (%) 28 days [2] [%]
CSCC[C@H](NC(=O)[C@H](CC(C)C)NC(=O)[C@@H](N)Cc1c[nH]cn1)C(=O)N[C@@H](C)C(=O)N[C@@]1(C)CCCC=CCCC[C@@](C)(C(=O)N[C@@H](CCCCN)C(=O)N[C@@H](CCCCN)C(=O)N[C@@H](CC(C)C)C(=O)N[C@@H](CCCCN)C(=O)N[C@@H](CCCCN)C(=O)N[C@@H](CCCNC(=N)N)C(=O)O)NC(=O)[C@H](CS)NC(=O)[C@H]([C@@H](C)O)NC(=O)[C@H](Cc2ccccc2)NC1=O [S5, His-Leu-Met-Ala-S5-Phe-Thr-Cys-S5-Lys-Lys-Leu-Lys-Lys-Arg] (H-HLMA[S5]FTC[S5]KKLKKR-OH; staple 5-9; N-terminus and C-terminus assumed)	interacted with the TRB3 protein	interrupted	100	100	93.33	93.33
CSCC[C@H](NC(=O)[C@H](CC(C)C)NC(=O)[C@@H](N)Cc1c[nH]cn1)C(=O)N[C@@H](C)C(=O)N[C@@H](CS)C(=O)N[C@@]1(C)CCCC=CCCC[C@@](C)(C(=O)N[C@@H](CCCCN)C(=O)N[C@@H](CC(C)C)C(=O)N[C@@H](CCCCN)C(=O)N[C@@H](CCCCN)C(=O)N[C@@H](CCCNC(=N)N)C(=O)O)NC(=O)[C@H](C)NC(=O)[C@H](CS)NC(=O)[C@H]([C@@H](C)O)NC1=O [S6, His-Leu-Met-Ala-Cys-S5-Thr-Cys-Ala-S5-Lys-Leu-Lys-Lys-Arg] (H-HLMAC[S5]TCA[S5]KLKKR-OH; staple 6-10; N-terminus and C-terminus assumed)	interacted with the TRB3 protein	interrupted	100	86.67	80	80
CSCC[C@H](NC(=O)[C@H](CC(C)C)NC(=O)[C@@H](N)Cc1c[nH]cn1)C(=O)N[C@@H](C)C(=O)N[C@@H](CS)C(=O)N[C@@H](Cc1ccccc1)C(=O)N[C@@]1(C)CCCC=CCCC[C@@](C)(C(=O)N[C@@H](CC(C)C)C(=O)N[C@@H](CCCCN)C(=O)N[C@@H](CCCCN)C(=O)N[C@@H](CCCNC(=N)N)C(=O)O)NC(=O)[C@H](CCCCN)NC(=O)[C@H](C)NC(=O)[C@H](CS)NC1=O [S7, His-Leu-Met-Ala-Cys-Phe-S5-Cys-Ala-Lys-S5-Leu-Lys-Lys-Arg] (H-HLMACF[S5]CAK[S5]LKKR-OH; staple 7-11; N-terminus and C-terminus assumed)	interacted with the TRB3 protein	interrupted	100	100	93.33	93.33
CSCC[C@H](NC(=O)[C@H](CC(C)C)NC(=O)[C@@H](N)Cc1c[nH]cn1)C(=O)N[C@@H](C)C(=O)N[C@@H](CS)C(=O)N[C@@H](Cc1ccccc1)C(=O)N[C@H](C(=O)N[C@@]1(C)CCCC=CCCC[C@@](C)(C(=O)N[C@@H](CCCCN)C(=O)N[C@@H](CCCCN)C(=O)N[C@@H](CCCNC(=N)N)C(=O)O)NC(=O)[C@H](CCCCN)NC(=O)[C@H](CCCCN)NC(=O)[C@H](C)NC1=O)[C@@H](C)O [S8, His-Leu-Met-Ala-Cys-Phe-Thr-S5-Ala-Lys-Lys-S5-Lys-Lys-Arg] (H-HLMACFT[S5]AKK[S5]KKR-OH; staple 8-12; N-terminus and C-terminus assumed)	interacted with the TRB3 protein	interrupted	100	100	93.33	86.67
CSCC[C@H](NC(=O)[C@H](CC(C)C)NC(=O)[C@@H](N)Cc1c[nH]cn1)C(=O)N[C@@H](C)C(=O)N[C@@H](CS)C(=O)N[C@@H](Cc1ccccc1)C(=O)N[C@H](C(=O)N[C@@H](CS)C(=O)N[C@@]1(C)CCCC=CCCC[C@@](C)(C(=O)N[C@@H](CCCCN)C(=O)N[C@@H](CCCNC(=N)N)C(=O)O)NC(=O)[C@H](CC(C)C)NC(=O)[C@H](CCCCN)NC(=O)[C@H](CCCCN)NC1=O)[C@@H](C)O [S9, His-Leu-Met-Ala-Cys-Phe-Thr-Cys-S5-Lys-Lys-Leu-S5-Lys-Arg] (H-HLMACFTC[S5]KKL[S5]KR-OH; staple 9-13; N-terminus and C-terminus assumed)	interacted with the TRB3 protein	interrupted	100	93.33	93.33	93.33
CSCC[C@H](NC(=O)[C@H](CC(C)C)NC(=O)[C@@H](N)Cc1c[nH]cn1)C(=O)N[C@@H](C)C(=O)N[C@@H](CS)C(=O)N[C@@H](Cc1ccccc1)C(=O)N[C@H](C(=O)N[C@@H](CS)C(=O)N[C@@H](C)C(=O)N[C@@]1(C)CCCC=CCCC[C@@](C)(C(=O)N[C@@H](CCCNC(=N)N)C(=O)O)NC(=O)[C@H](CCCCN)NC(=O)[C@H](CC(C)C)NC(=O)[C@H](CCCCN)NC1=O)[C@@H](C)O [S10, His-Leu-Met-Ala-Cys-Phe-Thr-Cys-Ala-S5-Lys-Leu-Lys-S5-Arg] (H-HLMACFTCA[S5]KLK[S5]R-OH; staple 10-14; N-terminus and C-terminus assumed)	interacted with the TRB3 protein	interrupted	100	93.33	80	80
